# Data: patent US11884675B2, “Heterocyclic compounds as triggering receptor expressed on myeloid cells 2 agonists and methods of use” (AMGEN INC., priority 2020, dated 2024)
# Biological target: hTREM2 (Homo sapiens, UniProt Q9NZC2)
# Assay: TREM2 activity by cellular Syk phosphorylation (AlphaScreen/AlphaLISA) in TREM2/DAP12-HEK cells, used for Examples 1-305
# Type: cell-based
# Design: expressed in transfected cells
# Conditions: HEK293 Cells
# Method in brief: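 Single-cell-cloned HEK293 cells overexpressing TREM2 and DAP12, seeded 20 h, exposed to test articles (1% final DMSO) for 45 min at room temperature. Lysates read for phospho-Syk (Tyr525/526) vs total Syk by AlphaScreen. Signal normalised as percent of control between isotype IgG and 100 nM anti-TREM2 antibody; 4-parameter logistic fit.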
# hTREM2, sequence (Q9NZC2 19-230): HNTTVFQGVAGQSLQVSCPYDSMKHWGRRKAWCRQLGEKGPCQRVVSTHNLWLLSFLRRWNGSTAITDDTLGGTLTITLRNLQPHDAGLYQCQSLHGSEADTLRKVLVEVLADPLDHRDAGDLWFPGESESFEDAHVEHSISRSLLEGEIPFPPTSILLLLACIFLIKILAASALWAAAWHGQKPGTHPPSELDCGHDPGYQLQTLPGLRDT
# hTREM2, sequence (O43914 22-113 partner): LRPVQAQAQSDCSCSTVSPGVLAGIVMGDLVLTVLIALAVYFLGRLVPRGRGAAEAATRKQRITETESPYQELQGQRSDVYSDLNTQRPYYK
EC50 [nM],hTREM2 Emax,SMILES
50 to 500,++++ (Emax>250),"COc1cc([C@H]2CN(c3cc4nc(C)ccc4c(-c4ccc(Cl)cc4F)n3)CCO2)ccn1 [Example 149, 5-(4-chloro-2-fluorophenyl)-7-((2S)-2-(2-methoxy-4-pyridinyl)-4-morpholinyl)-2-methyl-1,6-naphthyridine]"
50 to 500,++++ (Emax>250),"Cc1ccc2c(-c3ccc(Cl)cc3F)nc(N3CCO[C@@H](c4cnn(C5CC5)c4)C3)cc2n1 [Example 150, 5-(4-chloro-2-fluorophenyl)-7-((2S)-2-(1-cyclopropyl-1H-pyrazol-4-yl)-4-morpholinyl)-2-methyl-1,6-naphthyridine]"
50 to 500,++++ (Emax>250),"Cc1cc([C@H]2CN(c3cc4nc(C)ccc4c(-c4ccc(Cl)cc4F)n3)CCO2)ccn1 [Example 151, 5-(4-chloro-2-fluorophenyl)-2-methyl-7-((2S)-2-(2-methyl-4-pyridinyl)-4-morpholinyl)-1,6-naphthyridine]"
≤ 50,++++ (Emax>250),"Cc1cc2c(-c3ccc(Cl)cc3F)nc(N3CCO[C@@H](c4cnn(C)c4)C3)cc2nc1C [Example 152, 5-(4-chloro-2-fluorophenyl)-2,3-dimethyl-7-((2S)-2-(1-methyl-1H-pyrazol-4-yl)-4-morpholinyl)-1,6-naphthyridine]"
50 to 500,+++ (Emax>150 and ≤250),"Cc1ncc2c(-c3ccc(Cl)cc3F)cc(N3CCO[C@@H](c4cnn(C)c4)C3)cc2n1 [Example 153, 5-(4-chloro-2-fluorophenyl)-2-methyl-7-((2S)-2-(1-methyl-1H-pyrazol-4-yl)-4-morpholinyl) quinazoline]"
50 to 500,++++ (Emax>250),"Cc1cc([C@H]2CN(c3cc(-c4ccc(F)cc4F)c4cnc(C)nc4c3)CCO2)ccn1 [Example 154, 5-(2,4-difluorophenyl)-2-methyl-7-((2S)-2-(2-methyl-4-pyridinyl)-4-morpholinyl) quinazoline]"
500 to 3000,++ (Emax>100 and ≤150),"Cn1cc([C@H]2CN(c3cc(-c4ccc(Cl)cc4F)c4cccnc4n3)CCO2)cn1 [Example 155, 4-(4-chloro-2-fluorophenyl)-2-((2S)-2-(1-methyl-1H-pyrazol-4-yl)-4-morpholinyl)-1,8-naphthyridine]"
50 to 500,+++ (Emax>150 and ≤250),"Cc1ccc2c(-c3ccc(Cl)cc3F)cc(N3CCO[C@@H](c4cnn(C)c4)C3)nc2n1 [Example 156, 4-(4-chloro-2-fluorophenyl)-7-methyl-2-((2S)-2-(1-methyl-1H-pyrazol-4-yl)-4-morpholinyl)-1,8-naphthyridine]"
≤ 50,++++ (Emax>250),"Cc1cc2c(-c3ccc(Cl)cc3F)cc(N3CCO[C@@H](c4cnn(C)c4)C3)nc2nc1C [Example 157, 5-(4-chloro-2-fluorophenyl)-2,3-dimethyl-7-((2S)-2-(1-methyl-1H-pyrazol-4-yl)-4-morpholinyl)-1,8-naphthyridine]"
50 to 500,+++ (Emax>150 and ≤250),"Cc1cnc2nc(N3CCO[C@@H](c4cnn(C)c4)C3)cc(-c3ccc(Cl)cc3F)c2n1 [Example 158, 8-(4-chloro-2-fluorophenyl)-2-methyl-6-((2S)-2-(1-methyl-1H-pyrazol-4-yl)-4-morpholinyl)pyrido [2,3-b]pyrazine]"
50 to 500,+++ (Emax>150 and ≤250),"Cc1cnc2c(-c3ccc(Cl)cc3F)cc(N3CCO[C@@H](c4cnn(C)c4)C3)nc2n1 [Example 159, 8-(4-chloro-2-fluorophenyl)-3-methyl-6-((2S)-2-(1-methyl-1H-pyrazol-4-yl)-4-morpholinyl)pyrido [2,3-b]pyrazine]"
≤ 50,++++ (Emax>250),"Cc1nc2nc(N3CCO[C@@H](c4cnn(C)c4)C3)cc(-c3ccc(Cl)cc3F)c2nc1C [Example 160, 8-(4-chloro-2-fluorophenyl)-2,3-dimethyl-6-((2S)-2-(1-methyl-1H-pyrazol-4-yl)-4-morpholinyl)pyrido [2,3-b]pyrazine]"
